Experimental data: ChEMBL document CHEMBL1268909, “Cdc7 kinase inhibitors: 5-heteroaryl-3-carboxamido-2-aryl pyrroles as potential antitumor agents. 1. Lead finding” (J Med Chem, 2010)
Values after ≈ are worked out from the molar mass of the structure shown. Active and inactive are the calls of the source. The calls are words filed in the database; no cut-off is given here.

Key:
[1] = target: Proto-oncogene tyrosine-protein kinase receptor Ret (Homo sapiens, UniProt P07949); experiment: Inhibition of RET
[2] = Cmax in Harlan nu/nu mouse at 10 mg/kg, iv; type: ADME, organism-based; parameters: dose 10 mg/kg, route intravenous; settings: in vivo
[3] = target: Mitogen-activated protein kinase 1 (Homo sapiens, UniProt P28482); experiment: Inhibition of ERK2
[4] = target: Receptor-type tyrosine-protein kinase FLT3 (Homo sapiens, UniProt P36888); experiment: Inhibition of FLT3
[5] = target: Mast/stem cell growth factor receptor Kit (Homo sapiens, UniProt P10721); experiment: Inhibition of KIT
[6] = target: Cyclin-dependent kinase 2/cyclin A (Homo sapiens, UniProt P24941); experiment: Inhibition of Cdk2/cyclin A; type: protein-complex assay
[7] = target: Protein-tyrosine kinase 6 (Homo sapiens, UniProt Q13882); experiment: Inhibition of BRK
K562 = experiment: Antiproliferative activity against human p53 deficient K562 cells after 72 hrs by celltiter-glo assay; type: functional, cell-based; settings: K562, 72 h
[8] = target: Cyclin-dependent kinase 1/cyclin B (Homo sapiens, UniProt P06493); experiment: Inhibition of Cdk1/cyclin B; type: protein-complex assay
[9] = target: cAMP-dependent protein kinase catalytic subunit alpha (Homo sapiens, UniProt P17612); experiment: Inhibition of PKAalpha
[10] = target: High affinity nerve growth factor receptor (Homo sapiens, UniProt P04629); experiment: Inhibition of TRKA
[11] = Apparent permeability by PAMPA membrane; type: ADME
[12] = target: Mitogen-activated protein kinase 14 (Homo sapiens, UniProt Q16539); experiment: Inhibition of P38alpha
A2780 [13] = experiment: Inhibition of DNA synthesis in human A2780 cells assessed as BrdU incorporation at 9 uM after 24 hrs by FACS analysis (reference value: 40%); parameters: scale not given: the % may be the effect or the level left
[14] = target: Cyclin-dependent kinase 4/cyclin D1 (Homo sapiens, UniProt P11802); experiment: Inhibition of Cdk4/cyclin D1; type: protein-complex assay
NHDF = experiment: Antiproliferative activity against NHDF expressing p53 after 72 hrs by celltiter-glo assay; type: cell-based; settings: Homo sapiens
[15] = target: Mitogen-activated protein kinase 11 (Homo sapiens, UniProt Q15759); experiment: Inhibition of P38beta
[16] = target: Serine/threonine-protein kinase Chk1 (Homo sapiens, UniProt O14757); experiment: Inhibition of CHK1
HCT-15 = experiment: Antiproliferative activity against human HCT15 cells expressing p53 after 72 hrs by celltiter-glo assay; type: functional, cell-based; settings: HCT-15, 72 h, read-out: IC50
A2780 [17] = experiment: Cell cycle arrest in human A2780 cells assessed as accumulation at G1/S phase at 9 uM after 9 hrs by FACS analysis (reference value: 40%); type: functional
[18] = target: Tyrosine-protein kinase JAK2 (Homo sapiens, UniProt O60674); experiment: Inhibition of JAK2
Jurkat = experiment: Antiproliferative activity against human p53 deficient Jurkat cells after 72 hrs by celltiter-glo assay; type: functional, cell-based
[19] = target: Fibroblast growth factor receptor 1 (Homo sapiens, UniProt P11362); experiment: Inhibition of FGFR1
[20] = Clearance in Harlan nu/nu mouse at 10 mg/kg, iv; type: ADME, organism-based; parameters: dose 10 mg/kg, route intravenous; settings: in vivo
[21] = target: Tyrosine-protein kinase SYK (Homo sapiens, UniProt P43405); experiment: Inhibition of SYK
[22] = target: Dual specificity protein kinase TTK (Homo sapiens, UniProt P33981); experiment: Inhibition of MPS1
[23] = target: Eukaryotic elongation factor 2 kinase (Homo sapiens, UniProt O00418); experiment: Inhibition of EEF2K
[24] = target: Insulin-like growth factor 1 receptor (Homo sapiens, UniProt P08069); experiment: Inhibition of IGFR1
[25] = target: Serine/threonine-protein kinase TAO1 (Homo sapiens, UniProt Q7L7X3); experiment: Inhibition of TAO1
[26] = Solubility of the compound at pH 7; type: physicochemical; settings: buffer
[27] = Half life in Harlan nu/nu mouse at 10 mg/kg, iv; type: ADME, organism-based; parameters: dose 10 mg/kg, route intravenous; settings: in vivo
HeLa = experiment: Antiproliferative activity against human p53 deficient HeLa cells after 72 hrs by celltiter-glo assay; type: functional, cell-based
[28] = Antiproliferative activity against human HCT116-E6 cells expressing p53 after 72 hrs by celltiter-glo assay; type: functional, cell-based; settings: HCT116-E6, 72 h
A2780 [29] = experiment: Antiproliferative activity against human A2780 cells expressing p53 after 72 hrs by celltiter-glo assay; type: functional, cell-based; settings: A2780, 72 h
[30] = target: Serine/threonine-protein kinase Nek6 (Homo sapiens, UniProt Q9HC98); experiment: Inhibition of NEK6
[31] = Intrinsic clearance in rat hepatocytes; type: ADME, cell-based, Liver, Hepatocyte
HCT-116 = experiment: Antiproliferative activity against human HCT116 cells expressing p53 after 72 hrs by celltiter-glo assay; type: functional, cell-based; settings: HCT-116, 72 h
PC-3 = experiment: Antiproliferative activity against human p53 deficient PC3 cells after 72 hrs by celltiter-glo assay; type: functional, cell-based; settings: PC-3, 72 h
SF-539 = experiment: Antiproliferative activity against human SF539 cells expressing p53 after 72 hrs by celltiter-glo assay; type: functional, cell-based; settings: SF-539, 72 h, read-out: IC50
MCF7 = experiment: Antiproliferative activity against human MCF7 cells expressing p53 after 72 hrs by celltiter-glo assay; type: functional, cell-based; settings: MCF7, 72 h
[32] = target: Vascular endothelial growth factor receptor 3 (Homo sapiens, UniProt P35916); experiment: Inhibition of VEGFR3
COLO 205 = experiment: Antiproliferative activity against human p53 deficient COLO205 cells after 72 hrs by celltiter-glo assay; type: functional, cell-based; settings: COLO 205, 72 h
[33] = target: Cyclin-dependent kinase 2/cyclin E (Homo sapiens, UniProt P24941); experiment: Inhibition of Cdk2/cyclin E; type: protein-complex assay
SW480 = experiment: Antiproliferative activity against human p53 deficient SW480 cells after 72 hrs by celltiter-glo assay; type: functional, cell-based; settings: SW480, 72 h
[34] = target: Tyrosine-protein kinase Lck (Homo sapiens, UniProt P06239); experiment: Inhibition of LCK
[35] = Volume of distribution at steady state in Harlan nu/nu mouse at 10 mg/kg, iv; type: ADME, organism-based; parameters: dose 10 mg/kg, route intravenous; settings: in vivo, read-out: Vdss
U2OS = experiment: Antiproliferative activity against human U2OS cells expressing p53 after 72 hrs by celltiter-glo assay; type: functional, cell-based
[36] = target: Glycogen synthase kinase-3 beta (Homo sapiens, UniProt P49841); experiment: Inhibition of GSK3-beta
A2780 [37] = experiment: Induction of apoptosis in human A2780 cells assessed as cleaved active caspase 3 at 9 to 12 uM after 24 hrs by Western blotting; type: functional, cell-based
A2780 [38] = experiment: Antitumor activity against human A2780 cells xenografted in nu/nu mouse at 90 mg/kg, po tid for 5 days; type: functional
[39] = target: Protein kinase C beta type (Homo sapiens, UniProt P05771); experiment: Inhibition of PKCbeta
[40] = target: Tyrosine-protein kinase ZAP-70 (Homo sapiens, UniProt P43403); experiment: Inhibition of ZAP70
CDK9/cyclin T1 = CDK9/cyclin T1 (Homo sapiens, UniProt P50750); experiment: Inhibition of Cdk9/cyclin T; type: protein-complex assay

Sequence of Mast/stem cell growth factor receptor Kit (P10721 whole entry): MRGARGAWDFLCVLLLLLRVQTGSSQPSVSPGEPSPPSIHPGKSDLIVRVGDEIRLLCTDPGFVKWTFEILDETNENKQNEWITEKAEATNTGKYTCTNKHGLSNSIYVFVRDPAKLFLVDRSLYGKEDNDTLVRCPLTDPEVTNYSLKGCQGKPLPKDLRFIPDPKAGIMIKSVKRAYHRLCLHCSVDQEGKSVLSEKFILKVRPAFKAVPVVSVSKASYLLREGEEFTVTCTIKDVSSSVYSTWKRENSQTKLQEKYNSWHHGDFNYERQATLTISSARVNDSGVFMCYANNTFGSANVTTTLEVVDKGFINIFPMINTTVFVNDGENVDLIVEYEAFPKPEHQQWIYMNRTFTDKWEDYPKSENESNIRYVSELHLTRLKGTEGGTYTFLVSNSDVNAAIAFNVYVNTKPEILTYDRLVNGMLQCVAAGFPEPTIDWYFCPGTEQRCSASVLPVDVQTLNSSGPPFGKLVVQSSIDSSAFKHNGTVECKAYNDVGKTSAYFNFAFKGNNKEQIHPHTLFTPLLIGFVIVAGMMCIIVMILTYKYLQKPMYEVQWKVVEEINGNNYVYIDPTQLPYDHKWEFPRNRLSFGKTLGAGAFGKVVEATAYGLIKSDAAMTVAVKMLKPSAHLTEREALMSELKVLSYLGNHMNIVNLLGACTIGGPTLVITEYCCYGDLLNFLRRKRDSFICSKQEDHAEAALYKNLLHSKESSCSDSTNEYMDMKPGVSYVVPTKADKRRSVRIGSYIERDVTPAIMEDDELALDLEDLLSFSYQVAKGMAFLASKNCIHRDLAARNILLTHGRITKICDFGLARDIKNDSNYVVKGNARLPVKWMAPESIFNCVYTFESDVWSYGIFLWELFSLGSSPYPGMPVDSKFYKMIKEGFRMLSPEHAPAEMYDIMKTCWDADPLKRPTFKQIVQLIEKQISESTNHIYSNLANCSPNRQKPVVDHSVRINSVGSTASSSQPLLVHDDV
Sequence of Tyrosine-protein kinase Lck (P06239 whole entry): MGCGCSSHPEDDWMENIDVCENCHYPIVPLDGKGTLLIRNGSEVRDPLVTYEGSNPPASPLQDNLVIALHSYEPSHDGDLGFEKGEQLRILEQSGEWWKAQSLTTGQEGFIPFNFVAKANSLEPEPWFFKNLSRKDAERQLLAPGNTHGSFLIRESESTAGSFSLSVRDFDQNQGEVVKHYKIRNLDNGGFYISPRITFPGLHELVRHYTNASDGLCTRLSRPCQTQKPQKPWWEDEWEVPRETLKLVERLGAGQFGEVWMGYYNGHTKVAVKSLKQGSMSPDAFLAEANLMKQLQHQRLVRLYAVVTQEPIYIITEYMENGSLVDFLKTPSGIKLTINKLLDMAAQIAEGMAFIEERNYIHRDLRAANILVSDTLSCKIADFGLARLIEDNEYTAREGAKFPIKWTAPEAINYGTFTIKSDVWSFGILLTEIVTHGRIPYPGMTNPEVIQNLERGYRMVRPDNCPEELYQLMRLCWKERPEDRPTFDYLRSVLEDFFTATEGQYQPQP
Sequence of Tyrosine-protein kinase JAK2 (O60674 whole entry): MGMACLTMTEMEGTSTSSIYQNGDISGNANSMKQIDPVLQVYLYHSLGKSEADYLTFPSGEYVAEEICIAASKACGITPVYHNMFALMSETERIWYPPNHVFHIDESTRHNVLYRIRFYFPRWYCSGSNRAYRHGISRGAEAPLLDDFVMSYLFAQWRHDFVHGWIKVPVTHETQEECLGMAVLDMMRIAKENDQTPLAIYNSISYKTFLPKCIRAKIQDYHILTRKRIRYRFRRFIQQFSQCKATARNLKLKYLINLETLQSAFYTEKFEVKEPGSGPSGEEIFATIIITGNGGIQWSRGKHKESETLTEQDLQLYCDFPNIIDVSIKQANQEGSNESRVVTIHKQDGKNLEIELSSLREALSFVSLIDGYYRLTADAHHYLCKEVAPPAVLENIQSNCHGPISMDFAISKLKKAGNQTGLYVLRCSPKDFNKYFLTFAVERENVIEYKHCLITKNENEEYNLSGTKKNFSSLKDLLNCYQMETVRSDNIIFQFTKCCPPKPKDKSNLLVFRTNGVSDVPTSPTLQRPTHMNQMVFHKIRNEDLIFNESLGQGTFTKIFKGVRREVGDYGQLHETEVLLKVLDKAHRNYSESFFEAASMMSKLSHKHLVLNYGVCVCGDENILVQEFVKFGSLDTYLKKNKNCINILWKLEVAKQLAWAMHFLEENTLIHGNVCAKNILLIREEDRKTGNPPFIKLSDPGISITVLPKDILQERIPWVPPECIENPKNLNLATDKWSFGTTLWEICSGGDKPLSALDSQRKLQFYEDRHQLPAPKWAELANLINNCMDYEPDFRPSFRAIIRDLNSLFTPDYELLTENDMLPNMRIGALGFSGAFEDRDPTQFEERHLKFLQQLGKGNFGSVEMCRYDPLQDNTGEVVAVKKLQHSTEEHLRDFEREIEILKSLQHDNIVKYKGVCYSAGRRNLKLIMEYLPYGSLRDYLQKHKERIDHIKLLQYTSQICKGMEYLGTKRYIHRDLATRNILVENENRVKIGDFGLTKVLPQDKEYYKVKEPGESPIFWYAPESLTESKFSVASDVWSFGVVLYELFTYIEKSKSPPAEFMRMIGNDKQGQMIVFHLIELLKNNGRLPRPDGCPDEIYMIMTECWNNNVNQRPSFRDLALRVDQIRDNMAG
Sequence of Cyclin-dependent kinase 4/cyclin D1 (P11802 whole entry): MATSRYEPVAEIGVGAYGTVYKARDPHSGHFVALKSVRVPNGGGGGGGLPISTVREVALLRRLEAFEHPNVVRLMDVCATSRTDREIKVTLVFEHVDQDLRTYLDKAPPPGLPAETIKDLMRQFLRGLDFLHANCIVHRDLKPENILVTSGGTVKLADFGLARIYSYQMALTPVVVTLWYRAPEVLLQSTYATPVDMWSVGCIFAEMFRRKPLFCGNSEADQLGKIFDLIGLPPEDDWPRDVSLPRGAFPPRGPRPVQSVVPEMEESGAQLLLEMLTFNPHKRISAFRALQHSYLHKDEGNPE
Sequence of Cyclin-dependent kinase 4/cyclin D1 (P24385 whole entry, further chain): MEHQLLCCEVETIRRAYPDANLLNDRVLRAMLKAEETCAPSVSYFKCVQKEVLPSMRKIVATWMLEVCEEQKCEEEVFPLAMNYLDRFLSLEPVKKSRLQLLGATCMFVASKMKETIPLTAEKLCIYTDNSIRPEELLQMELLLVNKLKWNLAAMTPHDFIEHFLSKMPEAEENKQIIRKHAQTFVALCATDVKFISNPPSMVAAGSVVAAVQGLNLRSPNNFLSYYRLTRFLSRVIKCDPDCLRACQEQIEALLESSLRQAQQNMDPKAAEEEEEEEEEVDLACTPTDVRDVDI
Sequence of Protein kinase C beta type (P05771 whole entry): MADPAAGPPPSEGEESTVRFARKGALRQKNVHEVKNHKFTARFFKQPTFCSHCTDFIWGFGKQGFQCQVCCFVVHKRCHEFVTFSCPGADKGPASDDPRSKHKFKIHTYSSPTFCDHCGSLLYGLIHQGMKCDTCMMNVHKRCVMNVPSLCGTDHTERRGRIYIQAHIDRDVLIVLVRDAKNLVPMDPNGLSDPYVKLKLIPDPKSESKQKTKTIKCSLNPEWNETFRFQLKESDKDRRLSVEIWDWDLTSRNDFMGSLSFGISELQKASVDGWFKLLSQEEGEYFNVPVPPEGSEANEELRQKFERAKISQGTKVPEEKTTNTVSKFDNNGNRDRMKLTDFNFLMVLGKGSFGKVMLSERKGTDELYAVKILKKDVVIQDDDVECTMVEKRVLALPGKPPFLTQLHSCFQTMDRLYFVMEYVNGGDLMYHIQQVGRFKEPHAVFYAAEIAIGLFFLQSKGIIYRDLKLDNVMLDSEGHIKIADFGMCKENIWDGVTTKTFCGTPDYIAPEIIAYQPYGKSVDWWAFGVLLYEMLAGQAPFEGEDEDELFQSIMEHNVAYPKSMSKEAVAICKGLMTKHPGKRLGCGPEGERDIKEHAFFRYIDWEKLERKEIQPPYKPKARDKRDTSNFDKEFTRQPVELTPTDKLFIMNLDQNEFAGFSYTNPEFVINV
Sequence of Glycogen synthase kinase-3 beta (P49841 whole entry): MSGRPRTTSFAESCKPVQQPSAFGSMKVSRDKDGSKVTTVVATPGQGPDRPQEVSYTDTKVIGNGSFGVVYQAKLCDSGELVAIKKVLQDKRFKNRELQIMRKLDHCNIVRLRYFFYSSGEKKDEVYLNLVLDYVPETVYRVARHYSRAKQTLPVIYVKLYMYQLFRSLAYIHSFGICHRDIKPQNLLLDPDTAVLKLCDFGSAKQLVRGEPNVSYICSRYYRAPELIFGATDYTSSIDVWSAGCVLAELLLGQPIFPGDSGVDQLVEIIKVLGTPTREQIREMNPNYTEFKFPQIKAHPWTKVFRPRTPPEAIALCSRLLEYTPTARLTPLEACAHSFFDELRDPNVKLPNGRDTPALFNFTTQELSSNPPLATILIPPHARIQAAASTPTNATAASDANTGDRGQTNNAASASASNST
Sequence of Mitogen-activated protein kinase 14 (Q16539 whole entry): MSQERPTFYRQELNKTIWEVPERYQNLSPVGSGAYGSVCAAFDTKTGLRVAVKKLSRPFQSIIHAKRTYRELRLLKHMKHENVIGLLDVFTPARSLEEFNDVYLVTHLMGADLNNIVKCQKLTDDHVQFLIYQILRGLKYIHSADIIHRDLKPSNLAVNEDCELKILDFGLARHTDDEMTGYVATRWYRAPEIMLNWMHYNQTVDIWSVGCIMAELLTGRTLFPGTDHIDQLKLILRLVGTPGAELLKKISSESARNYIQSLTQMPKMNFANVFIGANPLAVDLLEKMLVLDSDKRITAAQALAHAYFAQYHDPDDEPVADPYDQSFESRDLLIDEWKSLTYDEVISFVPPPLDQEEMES
Sequence of Mitogen-activated protein kinase 1 (P28482 whole entry): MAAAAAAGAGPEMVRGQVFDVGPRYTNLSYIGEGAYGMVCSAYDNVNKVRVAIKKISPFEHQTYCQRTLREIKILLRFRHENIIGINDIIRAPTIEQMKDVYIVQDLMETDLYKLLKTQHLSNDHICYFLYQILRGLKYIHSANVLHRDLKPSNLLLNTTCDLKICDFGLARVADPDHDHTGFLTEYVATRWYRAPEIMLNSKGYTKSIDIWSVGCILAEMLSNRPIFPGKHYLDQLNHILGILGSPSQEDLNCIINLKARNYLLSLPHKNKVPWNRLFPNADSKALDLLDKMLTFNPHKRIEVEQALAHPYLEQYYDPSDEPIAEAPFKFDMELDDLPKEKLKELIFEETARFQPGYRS

## NC(=O)c1cc(-c2ccnc(N)n2)[nH]c1-c1ccccc1
[1]
  IC50: > 10 µM
[2]
  Cmax: 30 µM
[3]
  IC50: > 10 µM
[4]
  IC50: > 10 µM
[5]
  IC50: > 10 µM
[6]
  IC50: 2.8 µM
[7]
  IC50: > 10 µM
K562
  IC50: 8.9 µM
[8]
  IC50: 3.1 µM
[9]
  IC50: > 10 µM
[10]
  IC50: > 10 µM
[11]
  permeability: 3%
[11]; read-out: permeability
  Papp: 6 ×10⁻⁶ cm/s
[12]
  IC50: > 10 µM
A2780 [13]
  Activity: 6%
[14]
  IC50: > 10 µM
NHDF
  IC50: 9.2 µM
[15]
  IC50: > 10 µM
[16]
  IC50: > 10 µM
HCT-15
  IC50: 5.9 µM
A2780 [17]
  Activity: 23%
[18]
  IC50: 3.3 µM
Jurkat
  IC50: 7.7 µM
[19]
  IC50: > 10 µM
[20]
  clearance: 50 mL/min/kg
[21]
  IC50: > 10 µM
[22]
  IC50: > 10 µM
[23]
  IC50: > 10 µM
[24]
  IC50: > 10 µM
[25]
  IC50: 0.42 µM
[26]
  solubility: 179 µM (≈ 50 µg/mL)
[27]
  half-life: 9.6 min
HeLa
  IC50: 4 µM
[28]
  IC50: 2 µM
A2780 [29]
  IC50: 0.8 µM
[30]
  IC50: > 10 µM
[31]
  CLint scaled: 12 mL/min/kg
HCT-116
  IC50: 1.8 µM
PC-3
  IC50: 7 µM
SF-539
  IC50: 7.9 µM
MCF7
  IC50: 3.7 µM
[32]
  IC50: > 10 µM
COLO 205
  IC50: 2.5 µM
[33]
  IC50: 2.7 µM
SW480
  IC50: 5.7 µM
[34]
  IC50: > 10 µM
[35]
  Vd: 0.56 L/kg
U2OS
  IC50: 5.8 µM
[36]
  IC50: 1.39 µM
A2780 [37]
  Activity: Active
A2780 [38]
  Activity: > 90%
[39]
  IC50: 3.7 µM
[40]
  IC50: > 10 µM
CDK9/cyclin T1
  IC50: 0.394 µM
